In patent US12612384B2, “Heterocyclic CYP4A inhibitor compounds and compositions thereof” (MBD CO., LTD., priority 2021, dated 2026):

Each molecule was assayed against T1, CYP4A (Homo sapiens, UniProt Q02928) (assay: CYP4A enzyme assay (luminescence, Luciferin-ME)). Details: Compound concentration 5 μM; 50%-70%; read-out: % Inhibition 50%-70%.
T1 construct: purchased; host or cells: bacterial membranes ('bactosome')
T1 sequence (Q02928 5-519): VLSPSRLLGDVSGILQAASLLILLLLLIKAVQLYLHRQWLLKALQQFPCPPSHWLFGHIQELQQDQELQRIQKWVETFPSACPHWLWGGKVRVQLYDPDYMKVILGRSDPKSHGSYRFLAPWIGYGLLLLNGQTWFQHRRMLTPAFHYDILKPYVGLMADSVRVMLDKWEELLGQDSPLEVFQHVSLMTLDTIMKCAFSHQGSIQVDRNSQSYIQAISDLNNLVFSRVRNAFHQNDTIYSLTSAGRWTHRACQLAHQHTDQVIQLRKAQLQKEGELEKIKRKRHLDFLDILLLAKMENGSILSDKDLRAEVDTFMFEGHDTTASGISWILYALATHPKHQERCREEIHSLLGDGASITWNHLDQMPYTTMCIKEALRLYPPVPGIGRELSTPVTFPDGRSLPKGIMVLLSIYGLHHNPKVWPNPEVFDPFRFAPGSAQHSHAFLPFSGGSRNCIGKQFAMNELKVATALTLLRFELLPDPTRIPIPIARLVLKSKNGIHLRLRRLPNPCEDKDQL
Type: biochemical
Outline: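 Compounds (5 μM) were preincubated 15 min at room temperature with CYP4A bactosomes in 100 mM KPO4, 0.1% BSA, 1 mM DTT. Reaction ran 30 min at room temperature after adding 5 mM Luciferin-ME and NADPH regeneration system. Luminescence after 15 min with detection reagent; inhibition judged by comparing well signals.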

| Compound | inhibition at 5 µM |
| --- | --- |
| Cc1cc(N2CCN(C(=O)C3CCCN(S(=O)(=O)c4cccs4)C3)CC2)c2ccccc2n1 (centres unmarked) [Example 127, (4-(2-methylquinolin-4-yl)piperazin-1-yl)(1-(thiophen-2-ylsulfonyl)piperidin-3-yl)methanone] | 50 to 70% |
| O=C(C1CCCN(S(=O)(=O)c2ccco2)C1)N1CCN(c2ccnc3cc(Cl)ccc23)CC1 (centres unmarked) [Example 123, (4-(7-chloroquinolin-4-yl)piperazin-1-yl)(1-(furan-2-ylsulfonyl)piperidin-3-yl)methanone] | 50 to 70% |
| O=C(C1CCCN(S(=O)(=O)c2ccncc2)C1)N1CCN(c2cc(C(F)(F)F)nc3ccccc23)CC1 (centres unmarked) [Example 128, (1-(pyridin-4-ylsulfonyl)piperidin-3-yl)(4-(2-(trifluoromethyl)quinolin-4-yl)piperazin-1-yl)methanone] | 50 to 70% |
| Cc1cc(N2CCN(C(=O)C3CCCN(S(=O)(=O)c4ccncc4)C3)CC2)c2ccccc2n1 (centres unmarked) [Example 126, (4-(2-methylquinolin-4-yl)piperazin-1-yl)(1-(pyridin-4-ylsulfonyl)piperidin-3-yl)methanone] | 50 to 70% |

Same assay, conditions: Compound concentration 5 μM; 70%-90%; read-out: % Inhibition 70%-90%

| Compound | inhibition at 5 µM |
| --- | --- |
| COc1ccc2c(N3CCN(C(=O)C4CCCN(C(=O)c5ccc(NC(C)=O)cc5)C4)CC3)ccnc2c1 (centres unmarked) [Example 89, N-(4-(3-(4-(7-methoxyquinolin-4-yl)piperazine-1-carbonyl)piperidine-1-carbonyl)phenyl)acetamide] | 70 to 90% |
| CC(=O)Nc1ccc(C(=O)N2CCCC(C(=O)N3CCN(c4ccnc5ccccc45)CC3)C2)cc1 (centres unmarked) [Example 111, N-(4-(3-(1-(quinolin-4-yl)piperazine-4-carbonyl)piperidine-1-carbonyl)phenyl)acetamide] | 70 to 90% |
| O=C(C1CCN(S(=O)(=O)c2ncn[nH]2)CC1)N1CCN(c2ccnc3cc(F)ccc23)CC1 [Example 135, (1-((1H-1,2,4-triazol-5-yl)sulfonyl)piperidin-4-yl)(4-(7-fluoroquinolin-4-yl)piperazin-1-yl)methanone] | 70 to 90% |
| O=C(c1ccccc1)N1CCCC(C(=O)N2CCN(c3ccnc4cc(Cl)ccc34)CC2)C1 (centres unmarked) [Example 85, (4-(7-chloroquinolin-4-yl)piperazin-1-yl)(1-(phenylcarbonyl)piperidin-3-yl)methanone] | 70 to 90% |
| COC(=O)c1sccc1S(=O)(=O)N1CCC(C(=O)N2CCN(c3ccnc4ccccc34)CC2)C1 (centres unmarked) [Example 50, methyl 3-((3-(4-(quinolin-4-yl)piperazine-1-carbonyl)pyrrolidin-1-yl)sulfonyl)thiophene-2-carboxylate] | 70 to 90% |
| O=C(C1CCCN(S(=O)(=O)c2ccc(O)cc2)C1)N1CCN(c2ncnc3ccccc23)CC1 (centres unmarked) [Example 78, (1-((4-hydroxyphenyl)sulfonyl)piperidin-3-yl)(4-(quinazolin-4-yl)piperazin-1-yl)methanone] | 70 to 90% |
| O=C(C1CCCN(S(=O)(=O)C2CCCCC2)C1)N1CCN(c2ccnc3ccccc23)CC1 (centres unmarked) [Example 121, (1-(cyclohexylsulfonyl)piperidin-3-yl)(4-(quinolin-4-yl)piperazin-1-yl)methanone] | 70 to 90% |
| O=C(c1ccc(F)cc1)N1CCCC(C(=O)N2CCN(c3ccnc4ccccc34)CC2)C1 (centres unmarked) [Example 112, (1-(4-fluorophenylcarbonyl)piperidin-3-yl)(4-(quinolin-4-yl)piperazin-1-yl)methanone] | 70 to 90% |
| CC(=O)Nc1ccc(S(=O)(=O)N2CCCC(C(=O)N3CCN(c4ncnc5ccccc45)CC3)C2)cc1 (centres unmarked) [Example 74, N-(4-((3-(4-(quinazolin-4-yl)piperazine-1-carbonyl)piperidin-1-yl)sulfonyl)phenyl)acetamide] | 70 to 90% |
| O=C(C1CCN(Cc2ccc([N+](=O)[O-])cc2)C1)N1CCN(c2ccnc3cc(F)ccc23)CC1 (centres unmarked) [Example 53, (4-(7-fluoroquinolin-4-yl)piperazin-1-yl)(1-(4-nitrobenzyl)pyrrolidin-3-yl)methanone] | 70 to 90% |
| NCCn1cnc(S(=O)(=O)N2CC[C@H](C(=O)N3CCN(c4ccnc5cc(F)ccc45)CC3)C2)n1 [Example 144, (S)-(1-((1-(2-aminoethyl)-1H-1,2,4-triazol-3-yl)sulfonyl)pyrrolidin-3-yl)(4-(7-fluoroquinolin-4-yl)piperazin-1-yl)methanone] | 70 to 90% |
| Cc1nn(C)c(C)c1S(=O)(=O)N1CC[C@@H](C(=O)N2CCN(c3ccnc4ccccc34)CC2)C1 [Example 152, (R)-(4-(quinolin-4-yl)piperazin-1-yl)(1-((1,3,5-trimethyl-1H-pyrazol-4-yl)sulfonyl)pyrrolidin-3-yl)methanone] | 70 to 90% |

Same assay, conditions: Compound concentration 5 μM; Greater than 90%; read-out: % Inhibition Greater than 90%

| Compound | inhibition at 5 µM |
| --- | --- |
| CC(=O)Nc1ccc(C(=O)N2CCCC(C(=O)N3CCN(c4ccnc5cc(Cl)ccc45)CC3)C2)cc1 (centres unmarked) [Example 83, N-(4-(3-(1-(7-chloroquinolin-4-yl)piperazine-4-carbonyl)piperidine-1-carbonyl)phenyl)acetamide] | > 90% |
| O=C([C@H]1CCN(S(=O)(=O)c2ncc[nH]2)C1)N1CCN(c2ccnc3ccc(F)cc23)CC1 [Example 159, (S)-(1-((1H-imidazol-2-yl)sulfonyl)pyrrolidin-3-yl)(4-(6-fluoroquinolin-4-yl)piperazin-1-yl)methanone] | > 90% |
| CC(=O)Nc1ccc(C(=O)N2CCCC(C(=O)N3CCN(c4ccnc5ccccc45)CC3)C2)cc1 (centres unmarked) [Example 111, N-(4-(3-(1-(quinolin-4-yl)piperazine-4-carbonyl)piperidine-1-carbonyl)phenyl)acetamide] | > 90% |
| Cc1noc(C)c1S(=O)(=O)N1CCC(C(=O)N2CCN(c3ccnc4ccccc34)CC2)C1 (centres unmarked) [Example 39, (1-((3,5-dimethylisoxazol-4-yl)sulfonyl)pyrrolidin-3-yl)(4-(quinolin-4-yl)piperazin-1-yl)methanone] | > 90% |
| CC(=O)Nc1ccc(S(=O)(=O)N2CCC(C(=O)N3CCN(c4ccnc5ccccc45)CC3)C2)cn1 (centres unmarked) [Example 30, N-(5-((3-(4-(quinolin-4-yl)piperazine-1-carbonyl)pyrrolidin-1-yl)sulfonyl)pyridin-2-yl)acetamide] | > 90% |
| Cn1ccnc1S(=O)(=O)N1CC[C@H](C(=O)N2CCN(c3ccnc4cc(F)ccc34)CC2)C1 [Example 7, (S)-(4-(7-fluoroquinolin-4-yl)piperazin-1-yl)(1-((1-methyl-1H-imidazol-2-yl)sulfonyl)pyrrolidin-3-yl)methanone] | > 90% |
| O=C(C1CCN(S(=O)(=O)c2ccc(-c3ccncc3)cc2)CC1)N1CCN(c2ccnc3cc(F)ccc23)CC1 [Example 57, (4-(7-fluoroquinolin-4-yl)piperazin-1-yl)(1-((4-(pyridin-4-yl)phenyl)sulfonyl)piperidin-4-yl)methanone] | 0% |
| O=C(C1CN(S(=O)(=O)c2cccc([N+](=O)[O-])c2)C1)N1CCN(c2ccnc3cc(F)ccc23)CC1 [Example 71, (4-(7-fluoroquinolin-4-yl)piperazin-1-yl)(1-((3-nitrophenyl)sulfonyl)azetidin-3-yl)methanone] | > 90% |
| O=C([C@H]1CCN(S(=O)(=O)c2ccc([N+](=O)[O-])cc2)C1)N1CCN(c2ccnc3cc(F)ccc23)CC1 [Example 158, (S)-(4-(7-fluoroquinolin-4-yl)piperazin-1-yl)(1-((4-nitrophenyl)sulfonyl)pyrrolidin-3-yl)methanone] | > 90% |
| CC(=O)Nc1ccc(S(=O)(=O)N2CC[C@H](C(=O)N3CCN(c4ccnc5ccccc45)CC3)C2)cc1 [Example 23, (S)—N-(4-((3-(4-(quinolin-4-yl)piperazine-1-carbonyl)pyrrolidin-1-yl)sulfonyl)phenyl)acetamide] | > 90% |
| O=C(C1CCN(S(=O)(=O)c2ccc(O)cc2)C1)N1CCN(c2ccnc3cc(F)ccc23)CC1 (centres unmarked) [Example 4, (4-(7-fluoroquinolin-4-yl)piperazin-1-yl)(1-((4-hydroxyphenyl)sulfonyl)pyrrolidin-3-yl)methanone] | > 90% |
| O=C(C1CCN(S(=O)(=O)c2ncn[nH]2)C1)N1CCN(c2ccnc3cc(F)ccc23)CC1 (centres unmarked) [Example 10, (1-((1H-1,2,4-triazol-5-yl)sulfonyl)pyrrolidin-3-yl)(4-(7-fluoroquinolin-4-yl)piperazin-1-yl)methanone] | > 90% |
| O=C(C1CCN(S(=O)(=O)c2cccc(F)n2)C1)N1CCN(c2ccnc3ccccc23)CC1 (centres unmarked) [Example 52, (1-((6-fluoropyridin-2-yl)sulfonyl)pyrrolidin-3-yl)(4-(quinolin-4-yl)piperazin-1-yl)methanone] | > 90% |
| O=C(C1CN(S(=O)(=O)c2ccc([N+](=O)[O-])cc2)C1)N1CCN(c2ccnc3cc(F)ccc23)CC1 [Example 67, (4-(7-fluoroquinolin-4-yl)piperazin-1-yl)(1-((4-nitrophenyl)sulfonyl)azetidin-3-yl)methanone] | > 90% |
| O=C(C1CCN(S(=O)(=O)c2ccc(-c3ccccc3)nc2)C1)N1CCN(c2ccnc3ccccc23)CC1 (centres unmarked) [Example 25, (1-((6-phenylpyridin-3-yl)sulfonyl)pyrrolidin-3-yl)(4-(quinolin-4-yl)piperazin-1-yl)methanone] | > 90% |

Same assay, conditions: Compound concentration 5 μM; Less than 50%; read-out: % Inhibition Less than 50%

| Compound | inhibition at 5 µM |
| --- | --- |
| Cc1ccc(S(=O)(=O)N2CCCC(C(=O)N3CCN(c4nc(C)nc5ccccc45)CC3)C2)cc1 (centres unmarked) [Example 80, (4-(2-methylquinazolin-4-yl)piperazin-1-yl)(1-tosylpiperidin-3-yl)methanone] | < 50% |
